Read-outs that look alike come from different tables or passages of the source.
Molecular target: b-Raf (V600E) (Homo sapiens (Human), UniProt P15056, V600E)
Conditions: read-out: b-Raf IC-50, AlphaScreen
[1] = 60 min pre-incubation, 3 hours reaction
[2] = 60 min pre-incubation, reaction 3 hours at room temperature

b-Raf (V600E), sequence (P15056 whole entry V600E): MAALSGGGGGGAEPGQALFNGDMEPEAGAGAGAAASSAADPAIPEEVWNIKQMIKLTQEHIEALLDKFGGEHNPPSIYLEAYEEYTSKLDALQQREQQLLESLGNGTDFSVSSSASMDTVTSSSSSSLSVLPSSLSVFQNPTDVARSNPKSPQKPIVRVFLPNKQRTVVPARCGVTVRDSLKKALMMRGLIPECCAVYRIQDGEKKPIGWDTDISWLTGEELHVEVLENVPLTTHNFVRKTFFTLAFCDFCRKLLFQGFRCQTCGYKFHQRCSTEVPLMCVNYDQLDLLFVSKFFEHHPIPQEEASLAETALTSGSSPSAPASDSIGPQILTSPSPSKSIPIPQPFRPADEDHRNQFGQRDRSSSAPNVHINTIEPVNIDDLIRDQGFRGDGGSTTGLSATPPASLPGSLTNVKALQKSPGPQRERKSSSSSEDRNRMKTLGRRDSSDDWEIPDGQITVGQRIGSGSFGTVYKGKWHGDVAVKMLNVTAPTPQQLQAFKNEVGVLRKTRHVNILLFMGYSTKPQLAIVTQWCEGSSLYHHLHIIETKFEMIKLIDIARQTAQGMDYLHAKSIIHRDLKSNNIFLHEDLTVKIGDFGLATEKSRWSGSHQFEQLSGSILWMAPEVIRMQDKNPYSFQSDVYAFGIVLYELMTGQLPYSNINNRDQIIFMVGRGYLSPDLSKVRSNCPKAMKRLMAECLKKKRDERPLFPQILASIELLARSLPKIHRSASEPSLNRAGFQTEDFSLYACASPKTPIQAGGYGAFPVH

`CCOc1ncc(-c2cc(NC(=O)c3cccc(C(F)(F)F)c3)ccc2C)nc1N1CCOCC1` [Example 538, N-(3-(5-ethoxy-6-morpholinopyrazin-2-yl)-4-methylphenyl)-3-(trifluoromethyl)benzamide] showed an IC50 [1] of 1.2 nM.
`Cc1ncc(NC(=O)c2cccc(C(F)(F)F)c2)cc1-c1cc(N2CCOCC2)nc(N(C)C)n1` [Example 760, N-(5-(2-(dimethylamino)-6-morpholinopyrimidin-4-yl)-6-methylpyridin-3-yl)-3-(trifluoromethyl)benzamide] showed an IC50 [1] of 11.3 nM.
Work on `CCC(F)(F)c1cc(C(=O)Nc2ccc(C)c(-c3cc(N4CCOCC4)c(=O)n(C)c3)c2)ccn1` [Example 341, 2-(1,1-difluoropropyl)-N-(4-methyl-3-(1-methyl-5-morpholino-6-oxo-1,6-dihydropyridin-3-yl)phenyl)isonicotinamide] yielded an IC50 (Table 2, 3 hours reaction) of 2 nM.
With `Cc1ccc(NC(=O)c2ccnc(C(C)(F)F)c2)cc1-c1cc(N2CCOC[C@H]2C)c(=O)n(C)n1` [Example 674, (R)-2-(1,1-difluoroethyl)-N-(4-methyl-3-(1-methyl-5-(3-methylmorpholino)-6-oxo-1,6-dihydropyridazin-3-yl)phenyl)isonicotinamide] the IC50 [1] was 3.7 nM.
Compound `Cc1ccc(NC(=O)c2ccnc(C(C)(C)F)c2)cc1-c1cc(N2CCOCC2)c(S(C)(=O)=O)nn1` [Example 928, 2-(2-fluoropropan-2-yl)-N-(4-methyl-3-(6-(methylsulfonyl)-5-morpholinopyridazin-3-yl)phenyl)isonicotinamide] has an IC50 [2] of 1.9 nM.
With `Cc1ccc(NC(=O)c2ccnc(C(F)(F)F)c2)cc1-c1cc(N2CCOCC2)n(C)c(=O)c1` [Example 485, N-(4-methyl-3-(1-methyl-6-morpholino-2-oxo-1,2-dihydropyridin-4-yl)phenyl)-2-(trifluoromethyl)isonicotinamide] the IC50 [1] was 1.1 nM.
`COc1ncc(-c2cc(NC(=O)c3ccnc(C(C)(C)C#N)c3)cnc2Cl)cc1N1CCOCC1` [Example 264, N-(2-chloro-6′-methoxy-5′-morpholino-[3,3′-bipyridin]-5-yl)-2-(2-cyanopropan-2-yl)isonicotinamide] showed an IC50 (Table 2, 3 hours reaction) of 8.6 nM.
`Cc1ncc(NC(=O)c2cc(C(C)(C)F)ccn2)cc1-c1cnc(OC2CC3(COC3)C2)c(N2CCOCC2)c1` [Example 968, N-(6′-(2-oxaspiro[3.3]heptan-6-yloxy)-2-methyl-5′-morpholino-[3,3′-bipyridin]-5-yl)-4-(2-fluoropropan-2-yl)picolinamide] showed an IC50 [2] of 3.72 nM.
`Cc1ncc(NC(=O)c2ccnc(C3CC3)c2)cc1-c1cc(N2CCOCC2)n(C)c(=O)c1` [Example 511, 2-cyclopropyl-N-(1′,2-dimethyl-6′-morpholino-2′-oxo-1′,2′-dihydro-[3,4′-bipyridin]-5-yl)isonicotinamide] was tested, and the IC50 [1] was 6.4 nM.
Compound `Cc1ccc(NC(=O)c2cnccn2)cc1-c1ccnc(N2CCOCC2)c1` [Example 70, N-(4-methyl-3-(2-morpholinopyridin-4-yl)phenyl)pyrazine-2-carboxamide] has an IC50 (Table 2, 3 hours reaction) of 200 nM.
`Cn1cc(-c2cc(C(=O)Nc3cccc(C(F)F)c3)ccc2Cl)cc(N2CCOCC2)c1=O` [Example 426, 4-chloro-N-(3-(difluoromethyl)phenyl)-3-(1-methyl-5-morpholino-6-oxo-1,6-dihydropyridin-3-yl)benzamide] showed an IC50 (Table 2, 3 hours reaction) of 2.4 nM.
With `CCn1cc(-c2cc(NC(=O)c3ccnc(C(C)(C)C#N)c3)ccc2C)cc(N2CCOCC2)c1=O` [Example 160, 2-(2-cyanopropan-2-yl)-N-(3-(1-ethyl-5-morpholino-6-oxo-1,6-dihydropyridin-3-yl)-4-methylphenyl)isonicotinamide] the IC50 (Table 2, 3 hours reaction) was 10.6 nM.
Work on `Cc1ccc(NC(=O)c2ccnc(C(C)(C)C#N)c2)cc1-c1nc(N2CCOCC2)c2c(cnn2C)n1` [Example 861, 2-(2-cyanopropan-2-yl)-N-(4-methyl-3-(1-methyl-7-morpholino-1H-pyrazolo[4,3-d]pyrimidin-5-yl)phenyl)isonicotinamide] yielded an IC50 [2] of 2.5 nM.
For `Cc1ncc(NC(=O)c2cccc(C(F)(F)F)c2)cc1-c1cnc(C#N)c(N2CCOCC2)c1` [Example 222, N-(6′-cyano-2-methyl-5′-morpholino-[3,3′-bipyridin]-5-yl)-3-(trifluoromethyl)benzamide], the IC50 (Table 2, 3 hours reaction) was 3.8 nM.
Work on `Cc1ncc(NC(=O)c2ccnc(C(C)(C)C#N)c2)cc1-c1cc(N2CCOCC2)n(C)c(=O)c1` [Example 499, 2-(2-cyanopropan-2-yl)-N-(1′,2-dimethyl-6′-morpholino-6′-oxo-1′,2′-dihydro-[3,4′-bipyridin]-5-yl)isonicotinamide] yielded an IC50 [1] of 21.9 nM.
Work on `Cc1nc(C(=O)Nc2cnc(C)c(-c3cc(N4CCOCC4)c(=O)n(C)c3)c2)c(C)o1` [Example 383, N-(1′,2-dimethyl-5′-morpholino-6′-oxo-1′,6′-dihydro-[3,3′-bipyridin]-5-yl)-2,5-dimethyloxazole-4-carboxamide] yielded an IC50 (Table 2, 3 hours reaction) of 2800 nM.
`Cc1ncc(NC(=O)c2cccc(C(F)(F)F)c2)cc1-c1cnc(OCC2COCCO2)c(N2CCOCC2)c1` (centres unmarked) [Example 992] gave an IC50 [2] of 1.63 nM.
In the case of `CCOc1ncc(-c2cc(NC(=O)c3ccnc(C(C)(C)C#N)c3)ccc2C)cc1N1CCOCC1` [Example 161, 2-(2-cyanopropan-2-yl)-N-(3-(6-ethoxy-5-morpholinopyridin-3-yl)-4-methylphenyl)isonicotinamide], the IC50 (Table 2, 3 hours reaction) is reported as 2.9 nM.
`Cc1ccc(NC(=O)c2ccnc(C(F)F)c2)cc1-c1cc(N2CCOCC2)nc(N2CC(O)C2)c1` [Example 1067, 2-(difluoromethyl)-N-(3-(2-(3-hydroxyazetidin-1-yl)-6-morpholinopyridin-4-yl)-4-methylphenyl)isonicotinamide] was tested, and the IC50 [2] was 0.6 nM.
Work on `Cc1ncc(NC(=O)c2cccc(C(F)(F)F)c2)cc1-c1cc(N2CCOCC2)c2nccn2c1` [Example 884, N-(6-methyl-5-(8-morpholinoimidazo[1,2-a]pyridin-6-yl)pyridin-3-yl)-3-(trifluoromethyl)benzamide] yielded an IC50 [2] of 19.7 nM.
For `Cc1ccc(NC(=O)c2cccc(CC#N)c2)cc1-c1cc(N2CCOCC2)c(=O)n(C)n1` [Example 652, 3-(cyanomethyl)-N-(4-methyl-3-(1-methyl-5-morpholino-6-oxo-1,6-dihydropyridazin-3-yl)phenyl)benzamide], the IC50 [1] was 6.7 nM.
With `Cn1cc(-c2cc(NC(=O)c3ccnc(C(F)(F)F)c3)ccc2F)cc(N2CCOCC2)c1=O` [Example 418] the IC50 (Table 2, 3 hours reaction) was 3.5 nM.
Work on `Cc1ncc(NC(=O)c2ccnc(C(C)(C)O)c2)cc1-c1cc(N2CCOCC2)c2nccn2n1` [Example 870, 2-(2-hydroxypropan-2-yl)-N-(6-methyl-5-(8-morpholinoimidazo[1,2-b]pyridazin-6-yl)pyridin-3-yl)isonicotinamide] yielded an IC50 [2] of 7.5 nM.
`Cc1ncc(NC(=O)c2ccnc(C3(C#N)CC3)c2)cc1-c1cnc(N(C)C)c(N2CCOCC2)c1` [Example 266, 2-(1-cyanocyclopropyl)-N-(6′-(dimethylamino)-2-methyl-5′-morpholino-[3,3′-bipyridin]-5-yl)isonicotinamide] was tested, and the IC50 (Table 2, 3 hours reaction) was 1.9 nM.
`Cc1ncc(NC(=O)c2ccnc(C(C)C)c2)cc1-c1cc(N2CCOCC2)c2nccn2c1` [Example 882, 2-isopropyl-N-(6-methyl-5-(8-morpholinoimidazo[1,2-a]pyridin-6-yl)pyridin-3-yl)isonicotinamide] was tested, and the IC50 [2] was 8.1 nM.
With `CCOc1ncc(-c2cc(NC(=O)c3cnnc(C(F)(F)F)c3)ccc2C)cc1N1CCOCC1` [Example 280, N-(3-(6-ethoxy-5-morpholinopyridin-3-yl)-4-methylphenyl)-6-(trifluoromethyl)pyridazine-4-carboxamide] the IC50 (Table 2, 3 hours reaction) was 1.1 nM.
